Source: PubChem BioAssay AID324 (DTP/NCI, 2004)
Values joined by “and” are separate entries in the source; they are usually repeats but may differ in a detail not shown here. Equal values may be shown once. Inconclusive results and toxic doses are left out.

System: CD2F1 mice, AMSA-resistant P388 leukemia ip, median survival T/C
Experiment: NCI In Vivo Anticancer Drug Screen. Data for tumor model P388 Leukemia resistant to AMSA; NSC 249992 (intraperitoneal) in CD2F1 (CDF1) mice
Conditions: endpoint: median survival time, higher = longer survival
Method: The antitumor activity of compounds was measured in mice bearing transplantable tumors. Survival or tumor size were measured and the results are expressed as the measurement made in the treated group (T) divided by the measurement made in the vehicle treated control group (C). The tumor model used in this assay is P388 Leukemia resistant to AMSA; NSC 249992 (intraperitoneal) in CD2F1 (CDF1) mice

[1] = dose: 32.4 mg/kg/injection, schedule: Q04DX002 (ip), vehicle: saline
[2] = dose: 54.0 mg/kg/injection, schedule: Q04DX002 (ip), vehicle: saline
[3] = dose: 90.0 mg/kg/injection, schedule: Q04DX002 (ip), vehicle: saline
[4] = dose: 10.8 mg/kg/injection, schedule: Q04DX003 (ip), vehicle: water
[5] = dose: 18.0 mg/kg/injection, schedule: Q04DX003 (ip), vehicle: water
[6] = dose: 30.0 mg/kg/injection, schedule: Q04DX003 (ip), vehicle: water

CC(=O)N(C)c1ccc(Nc2cc(C)[nH]c3ccc4ncnc4c23)cc1
T/C (dose: 19.4 mg/kg/injection, schedule: Q04DX002 (ip), vehicle: saline): 101 % of control | T/C (dose: 20.7 mg/kg/injection, schedule: Q04DX002 (ip), vehicle: saline): 104 % of control | T/C [1]: 100 % of control | T/C (dose: 34.6 mg/kg/injection, schedule: Q04DX002 (ip), vehicle: saline): 112 % of control | T/C [2]: 119 % of control | T/C (dose: 57.6 mg/kg/injection, schedule: Q04DX002 (ip), vehicle: saline): 117 % of control | T/C [3]: 113 % of control | T/C (dose: 96.0 mg/kg/injection, schedule: Q04DX002 (ip), vehicle: saline): 109 % of control

COc1cccc2c1C(=O)c1c(O)c3c(c(O)c1C2=O)C[C@@](O)(C(C)=O)C[C@@H]3OC1CC(N(C)C)C(O)C(C)O1 (some centres not stated)
T/C (dose: 3.6 mg/kg/injection, schedule: Q04DX003 (ip), vehicle: water): 150 % of control | T/C (dose: 6.0 mg/kg/injection, schedule: Q04DX003 (ip), vehicle: water): 168 % of control | T/C (dose: 10.0 mg/kg/injection, schedule: Q04DX003 (ip), vehicle: water): 166 % of control | T/C (dose: 16.7 mg/kg/injection, schedule: Q04DX003 (ip), vehicle: water): 107 % of control

COc1cccc2c1C(=O)c1c(O)c3c(c(O)c1C2=O)C[C@@](O)(C(=O)CO)C[C@@H]3OC1CC([N+](C)(C)C)C(O)C(C)O1 (some centres not stated)
T/C (dose: 3.89 mg/kg/injection, schedule: Q04DX003 (ip), vehicle: water): 103 % of control | T/C (dose: 6.48 mg/kg/injection, schedule: Q04DX003 (ip), vehicle: water): 111 % of control | T/C [4]: 107 % of control | T/C [5]: 108 % of control | T/C [6]: 100 % of control

c1ccc2c(NCCCCCCNc3c4ccccc4nc4ccccc34)c3ccccc3nc2c1
T/C (dose: 1.94 mg/kg/injection, schedule: Q01DX009 (ip), vehicle: other): 123 % of control | T/C (dose: 2.59 mg/kg/injection, schedule: Q04DX003 (ip), vehicle: other): 123 % of control | T/C (dose: 4.32 mg/kg/injection, schedule: Q04DX003 (ip), vehicle: other): 110 % of control | T/C (dose: 7.2 mg/kg/injection, schedule: Q04DX003 (ip), vehicle: other): 94 % of control | T/C (dose: 7.78 mg/kg/injection, schedule: Q01DX001 (ip), vehicle: water): 93 % of control | T/C (dose: 10.0 mg/kg/injection, schedule: Q01DX009 (ip), vehicle: Klucel (hydroxypropylcellulose) (HPC)): 150 % of control | T/C (dose: 13.0 mg/kg/injection, schedule: Q01DX001 (ip), vehicle: water): 98 % of control

CCN(CC)C1CC(O[C@H]2C[C@](O)(C(C)=O)Cc3c(O)c4c(c(O)c32)C(=O)c2c(OC)cccc2C4=O)OC(C)C1O (some centres not stated)
T/C (dose: 4.32 mg/kg/injection, schedule: Q04DX003 (ip), vehicle: water): 117 % of control | T/C (dose: 20.0 mg/kg/injection, schedule: Q04DX003 (ip), vehicle: water): 166 % of control

COc1c(O)c2c(c3cc(C(=O)N4CCc5c4c(O)c(OC)c4[nH]c(C(=O)N6CC7CC78C6=CC(=O)c6[nH]cc(C)c68)cc54)[nH]c13)CCN2C(N)=O (configuration not stated)
T/C (dose: 0.04 mg/kg/injection, schedule: Q01DX001 (ip), vehicle: DMSO): 118 % of control | T/C (dose: 0.06 mg/kg/injection, schedule: Q01DX001 (ip), vehicle: DMSO): 123 % of control | T/C (dose: 0.18 mg/kg/injection, schedule: Q01DX001 (ip), vehicle: DMSO): 109 % of control

COc1cccc2c1C(=O)c1c(O)c3c(c(O)c1C2=O)C[C@@](O)(C(=O)CO)C[C@@H]3OC1CC(N)C(O)C(C)O1 (some centres not stated)
T/C (dose: 0.97 mg/kg/injection, schedule: Q04DX003 (ip), vehicle: saline): 118 % of control and 124 % of control | T/C (dose: 1.3 mg/kg/injection, schedule: Q04DX002 (ip), vehicle: saline): 109 % of control and 86 % of control | T/C (dose: 1.62 mg/kg/injection, schedule: Q04DX003 (ip), vehicle: saline): 121 % of control | T/C (dose: 2.16 mg/kg/injection, schedule: Q04DX002 (ip), vehicle: saline): 104 % of control | T/C (dose: 2.7 mg/kg/injection, schedule: Q04DX003 (ip), vehicle: saline): 122 % of control | T/C (dose: 4.5 mg/kg/injection, schedule: Q04DX003 (ip), vehicle: saline): 152 % of control | T/C (dose: 6.0 mg/kg/injection, schedule: Q04DX002 (ip), vehicle: saline): 90 % of control

O=P1(N(CCCl)CCCl)NCCCO1 (configuration not stated)
T/C (dose: 16.2 mg/kg/injection, schedule: Q04DX003 (ip), vehicle: saline): 196 % of control | T/C (dose: 25.9 mg/kg/injection, schedule: Q04DX002 (ip), vehicle: saline): 220 % of control | T/C (dose: 27.0 mg/kg/injection, schedule: Q04DX003 (ip), vehicle: saline): 240 % of control | T/C [1]: 243 % of control | T/C (dose: 43.2 mg/kg/injection, schedule: Q04DX002 (ip), vehicle: saline): 333 % of control | T/C (dose: 45.0 mg/kg/injection, schedule: Q04DX003 (ip), vehicle: saline): 348 % of control | T/C [2]: 305 % of control | T/C (dose: 72.0 mg/kg/injection, schedule: Q04DX002 (ip), vehicle: saline): 407 % of control | T/C (dose: 75.0 mg/kg/injection, schedule: Q04DX003 (ip), vehicle: saline): 348 % of control | T/C [3]: 416 % of control | T/C (dose: 120.0 mg/kg/injection, schedule: Q04DX002 (ip), vehicle: saline): 416 % of control | T/C (dose: 125.0 mg/kg/injection, schedule: Q04DX003 (ip), vehicle: saline): 348 % of control | T/C (dose: 150.0 mg/kg/injection, schedule: Q04DX002 (ip), vehicle: saline): 416 % of control | T/C (dose: 200.0 mg/kg/injection, schedule: Q04DX002 (ip), vehicle: saline): 164 % of control

Cc1c2ccncc2c(C)c2c1[nH]c1ccccc12
T/C (dose: 7.78 mg/kg/injection, schedule: Q04DX003 (ip), vehicle: saline with Tween-80): 100 % of control | T/C (dose: 13.0 mg/kg/injection, schedule: Q04DX003 (ip), vehicle: saline with Tween-80): 87 % of control | T/C (dose: 13.0 mg/kg/injection, schedule: Q04DX003 (ip), vehicle: water): 96 % of control | T/C (dose: 21.6 mg/kg/injection, schedule: Q04DX003 (ip), vehicle: saline with Tween-80): 100 % of control | T/C (dose: 21.6 mg/kg/injection, schedule: Q04DX003 (ip), vehicle: water): 100 % of control | T/C (dose: 25.9 mg/kg/injection, schedule: Q04DX002 (ip), vehicle: saline with Tween-80): 100 % of control | T/C (dose: 36.0 mg/kg/injection, schedule: Q04DX003 (ip), vehicle: saline with Tween-80): 101 % of control | T/C (dose: 36.0 mg/kg/injection, schedule: Q04DX003 (ip), vehicle: water): 101 % of control | T/C (dose: 43.2 mg/kg/injection, schedule: Q04DX002 (ip), vehicle: saline with Tween-80): 98 % of control | T/C (dose: 60.0 mg/kg/injection, schedule: Q04DX003 (ip), vehicle: saline with Tween-80): 109 % of control | T/C (dose: 60.0 mg/kg/injection, schedule: Q04DX003 (ip), vehicle: water): 89 % of control | T/C (dose: 72.0 mg/kg/injection, schedule: Q04DX002 (ip), vehicle: saline with Tween-80): 95 % of control | T/C (dose: 120.0 mg/kg/injection, schedule: Q04DX002 (ip), vehicle: saline with Tween-80): 95 % of control | T/C (dose: 200.0 mg/kg/injection, schedule: Q04DX002 (ip), vehicle: saline with Tween-80): 95 % of control

COc1cc(NS(C)(=O)=O)ccc1Nc1c2ccccc2nc2cc(C(F)(F)F)c(N)cc12
T/C (dose: 13.0 mg/kg/injection, schedule: Q04DX003 (ip), vehicle: distilled water + Tween-80): 106 % of control | T/C (dose: 21.6 mg/kg/injection, schedule: Q04DX003 (ip), vehicle: distilled water + Tween-80): 103 % of control | T/C (dose: 36.0 mg/kg/injection, schedule: Q04DX003 (ip), vehicle: distilled water + Tween-80): 104 % of control | T/C (dose: 60.0 mg/kg/injection, schedule: Q04DX003 (ip), vehicle: distilled water + Tween-80): 108 % of control | T/C (dose: 64.8 mg/kg/injection, schedule: Q04DX002 (ip), vehicle: water): 114 % of control | T/C (dose: 100.0 mg/kg/injection, schedule: Q04DX003 (ip), vehicle: distilled water + Tween-80): 103 % of control

CCCCC(=O)N(c1ccc(Nc2c3ccccc3nc3cc([N+](=O)[O-])ccc23)cc1)S(C)(=O)=O
T/C [4]: 100 % of control | T/C [5]: 96 % of control | T/C [6]: 95 % of control | T/C (dose: 50.0 mg/kg/injection, schedule: Q04DX003 (ip), vehicle: water): 99 % of control | T/C (dose: 83.3 mg/kg/injection, schedule: Q04DX003 (ip), vehicle: water): 91 % of control

COC(=O)C[C@](O)(CCCC(C)(C)O)C(=O)O[C@@H]1C(OC)=C[C@]23CCCN2CCc2cc4c(cc2[C@H]13)OCO4
T/C (dose: 1.8 mg/kg/injection, schedule: Q04DX003 (ip), vehicle: saline + alcohol): 153 % of control | T/C (dose: 3.0 mg/kg/injection, schedule: Q04DX003 (ip), vehicle: saline + alcohol): 163 % of control
